Data as given in patent US20150293086A1, “LATERAL FLOW IMMUNOASSAY” (ABREOS BIOSCIENCES, INC., priority 2014, published 2015).

Tested on: rituximab binding mimetope peptide
Test: Peptide based ELISA: biotinylated mimetope peptides on streptavidin/neutravidin plates capture the antibody
Conditions: biotinylated peptide on coated plate, peroxidase labeled secondary anti-Fc antibody
Method: FIG. 2 (A) illustrates one embodiment of the lateral flow assay validating that rituximab binding mimetope peptide function in immunoassays and competes with the native antigen (CD20). FIG. 2 (A) is a standard curve for rituximab by peptide based ELISA. Biotinylated peptides are bound onto neutravidin coated ELISA plates. Rituximab is diluted in TBST. […] The solid line indicates the mean of the buffer control and the dashed line represents the mean +10 times the SD of the buffer control.
To confirm that a synthetic peptide captures the antibody, ELISAs were performed. Peptides biotinylated at the C-terminus were coated onto streptavidin coated plates and then incubated with a dilution serious of antibody. Binding was detected via a peroxidase labeled secondary anti-Fc antibody. Specificity was confirmed by lack of signal from either total Ig or using a different antibody. […] The antibody was fluorescently labeled and the cell staining evaluated with or without a molar excess of the presumed mimetope as well as control peptides. […]
FIG. 2 illustrates one embodiment of the lateral flow assay validating that rituximab binding mimetope peptide function in immunoassays and competes with the native antigen (CD20). […] Fluorescently labeled rituximab was incubated with primary CLL cells and evaluated by flow cytometry (solid line). […]

sensitivity of peptide ELISA for the antibody: 4 µg/mL
Substance: rituximab: monoclonal antibody; native antigen CD20
